Results from patent US20260365698A1, “STAPLED PEPTIDES FOR SENSITIZATION OF CANCER TO TREATMENT” (Purdue Research Foundation, priority 2022, published 2026).
“Also recorded” adds a separate entry of the source. Bridge positions count the residues as written; N and C are the ends. Square brackets hold non-standard residues; d marks the D form. Peptide text beside a SMILES is read from it. S5 = C=CCCC[C@](C)(N)C(=O)O

Assays:
Nrf2/MafG heterodimer = Nrf2/MafG heterodimer (Homo sapiens, UniProt O15525); experiment: Split luciferase assay with purified MafG and Nrf2; type: biochemical; details: in vitro, FIG. 6A; listed as NIS
Description: Data shown are from three technical replicates with standard error. The data are representative of three independent experiments. *p<0.05, **p<0.01, ***p<0.001, student's T-test compared to dimethyl sulfoxide (DMSO).

red blood cells = experiment: Hemolysis assay; type: cell-based; details: 100 μM
Method: (§1) Finally, a hemolysis assay was performed based on a method described in Hostetler et al. (2021), supra. The peptides were tested at a final concentration of 100 μM and an average of 0.3% hemolysis was observed (data not shown).

Hemolysis assay = type: cell-based; details: red blood cells
Method: as §1

Nrf2 = experiment: Dual luciferase assay, NQO1-ARE firefly / TK-Renilla reporter; type: cell-based; details: HEK-293T cells; for inhibition of Nrf2 activity: 16 hours, 50 μM in FIG. 4A
Method: The results are averages from three replicates.
(§2) The peptides from Example 1 were screened for Nrf2 inhibition using a previously developed dual luciferase assay. Ren et al., Brusatol enhances the efficacy of chemotherapy by inhibiting the Nrf2-mediated defense mechanism, Biological Sciences 108(4): 1433-1438 (2011). Briefly, HEK-293T cells stably expressing ARE-firefly luciferase and TK-Renilla luciferase were used. The cells were treated with different concentrations of compounds N1 (SEQ ID NO: 3), N1 S (SEQ ID NO: 6), N2 (SEQ ID NO: 4), N2S (SEQ ID NO: 7), N3 (SEQ ID NO: 5), and N3S (SEQ ID NO: 8) for 16 hours. The cells were lysed in 1× passive lysis buffer, and both firefly luciferase and Renilla luciferase activities were measured using the Promega Dual-Luciferase™ Reporter (DLR™) Assay System and a luminometer (Turner Biosystems 20/20^n Luminometer). The samples were in triplicate for all concentrations of compounds (n=3).

[1] = system: thioredoxin reductase 1 (TrxR1) in A549 cells; experiment: Western blot, TrxR1 expression; type: cell-based; details: 72 hours
Method: After confirming the in vitro activity of NIS, its mechanism in a cellular context was examined. Western blots were carried out in the A549 non-small cell lung cancer cell line to show the effects of N1S inhibition on the protein expression of Nrf2-regulated proteins. Briefly, A549 cells were seeded in 6-well plates at a concentration of 2×10^5 cells/ml in 2.5 ml. Cells were treated the next day with either peptide at the desired concentration or DMSO. After a 72-hour incubation, cells were collected by trypsinization and centrifugation. Pellets were washed with PBS three times before the pellet was resuspended in 250 μL of RIPA buffer containing protease inhibitor and kept on ice for 30 minutes with intermittent vortex. The cells were then spun at 16,000 g for 5 minutes, and the supernatant was collected. Protein concentration of lysate was normalized with Pierce BCA Protein Assay Kit (Thermo Fisher Scientific, Waltham, MA). Equal volumes of lysate were mixed with 2× Laemmli sample buffer before separating on 4-15% Mini Protean TGX SDS-PAGE (Bio-Rad Laboratories, Hercules, CA). […]
ImageJ was used for quantification of all bands. Primary antibodies: TrxR1 (Santa Cruz Biotechnology, Dallas, TX), sc-28321, 1:100 dilution (~55 kDa band analyzed); j-actin (Cell Signaling Technology, Inc., Danvers, MA), #3700, 1:1000. […]

[2] = system: A549 non-small cell lung cancer cells; experiment: MTT assay / live cell growth, combination with cisplatin; type: cell-based
Method: Percent dead in red color indicates higher percentage of death. Data are representative of three independent replicates.
The ability of compound N1S to increase sensitivity to chemotherapeutics was examined. A549 non-small cell lung cancer cells were seeded into a Corning® 96-Well Cell Culture Plate (clear, sterile, non-treated) and incubated for 24 hours. The cells were treated with cisplatin alone, compound NIS alone, or in combination. Immediately following treatment, the cells were placed into an Incucyte® S3 Live-Cell Analysis Instrument (Sartorius AG, Gottingen, Germany) and imaged every two hours for three days. The Incucyte® S3's analytical software was used to calculate cell confluency at each time point. Synergy was determined using the Chou-Talalay method.
Additionally, an MTT assay was performed on the plate of cells from the Incucyte® study, and a separate, identical plate of cells was incubated for 24 hours. MTT reagent (20 μL of 5 mM stock) was added to each well and incubated for three hours at 37 °C. Following incubation, the plate was spun down at 2,500 rpm for five minutes at room temperature and then aspirated to remove the media. […] The absorbance of each well was measured at 570 nm using a plate reader (Molecular Devices SpectraMax® iD5 Multi-Mode Microplate Reader). […]

HEK-293T cells = experiment: Toxicity to the cells in the luciferase assay; type: cell-based; details: 16 hours, listed as NIS
Method: as §2

MafG = molecular target: T1, MafG (Homo sapiens, UniProt O15525); experiment: Immunoprecipitation (biotinylated pull-down) assay; type: binding; details: 20-fold unlabeled N1S
T1 construct: made in house; host or cells: E. coli Rosetta (DE3), vector pET15B, Ni-NTA purified
Method: To show direct interaction between compound NIS and MafG, an immunoprecipitation assay was carried out with His-tagged, purified MafG and biotin-labeled compound NTS peptide. Briefly, a Pierce™ Biotinylated Protein Interaction Pull-Down Kit was purchased from Thermo Fisher, and manufacturer's instructions were followed. Purified His-tagged MafG and biotin-tagged NIS were used as […] proteins. For competition experiments, 20× unlabeled NIS was added after 1 hour incubation with MafG.

Chain of Nrf2/MafG heterodimer (O15525 whole entry, one chain of several): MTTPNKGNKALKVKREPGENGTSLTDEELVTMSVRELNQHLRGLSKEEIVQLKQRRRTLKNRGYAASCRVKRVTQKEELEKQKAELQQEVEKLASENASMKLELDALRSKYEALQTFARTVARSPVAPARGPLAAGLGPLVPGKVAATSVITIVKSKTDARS
T1 sequence (O15525 whole entry): as the sequence (O15525 whole entry, one chain of several) above

## CC[C@H](C)[C@H](NC(C)=O)C(=O)N[C@H](C(=O)N[C@@H](CCC(=O)O)C(=O)N[C@@H](CC(C)C)C(=O)N[C@@H](CCC(=O)O)C(=O)N[C@@]1(C)CCCC=CCCC[C@@](C)(C(=O)N[C@@H](CC(C)C)C(=O)N[C@@H](CCCCN)C(=O)N[C@@H](CC(=O)O)C(=O)N[C@@H](CCC(=O)O)C(=O)N[C@@H](CCCCN)C(=O)N[C@@H](CCC(=O)O)C(N)=O)NC(=O)[C@H](CC(=O)O)NC(=O)[C@H](CC(C)C)NC(=O)[C@H](CC(=O)O)NC1=O)C(C)C [N1S] (Ac-IVELE[S5]DLD[S5]LKDEKE-NH2; staple 6-10)
Nrf2/MafG heterodimer
  inhibition of dimerization of Nrf2 with MafG: inhibiting dimerization of Nrf2 with MagF in vitro in a dose-dependent manner; also recorded: inhibits its dimerization with Nrf2
Red blood cells
  toxicity to red blood cells: no toxicity
Hemolysis assay
  hemolysis at 100 µM: 0.3%
Nrf2
  inhibition of Nrf2 activity: inhibit Nrf2
Nrf2; listed as NIS
  inhibition of Nrf2 activity: most potent inhibition of Nrf2 activity
Nrf2; FIG. 4B
  dose response for Nrf2 inhibition: showed a dose-response curve for Nrf2 inhibition
[1]
  TrxR1 protein expression: decrease
[2]; 50 μM N1S combined with 6 μM cisplatin
  growth compared to either treatment alone: greatly reduced levels of growth
[2]; combination with cisplatin
  sensitization of cancer cell lines to chemotherapeutics: can greatly sensitize cancer cell lines to chemotherapeutics
HEK-293T cells
  toxicity to the cells: no toxicity; also recorded: without showing toxicity
MafG
  competition of N1S-biotin/MafG interaction by unlabeled peptide: could be competed away
